Results as given in patent US11040981B2, “Pyrrolotriazine compounds and methods of inhibiting TAM kinases” (Syros Pharmaceuticals, Inc., priority 2017, dated 2021).
pIC50: −log10 of the molar value.

Columns and labels:
FLT3 = target: T1, FLT3 (Homo sapiens, UniProt P36888); assay: TR-FRET kinase activity assay, FLT3; assay type: biochemical; details: ATP at Km, 60 minutes
T1 sequence (P36888 27-993): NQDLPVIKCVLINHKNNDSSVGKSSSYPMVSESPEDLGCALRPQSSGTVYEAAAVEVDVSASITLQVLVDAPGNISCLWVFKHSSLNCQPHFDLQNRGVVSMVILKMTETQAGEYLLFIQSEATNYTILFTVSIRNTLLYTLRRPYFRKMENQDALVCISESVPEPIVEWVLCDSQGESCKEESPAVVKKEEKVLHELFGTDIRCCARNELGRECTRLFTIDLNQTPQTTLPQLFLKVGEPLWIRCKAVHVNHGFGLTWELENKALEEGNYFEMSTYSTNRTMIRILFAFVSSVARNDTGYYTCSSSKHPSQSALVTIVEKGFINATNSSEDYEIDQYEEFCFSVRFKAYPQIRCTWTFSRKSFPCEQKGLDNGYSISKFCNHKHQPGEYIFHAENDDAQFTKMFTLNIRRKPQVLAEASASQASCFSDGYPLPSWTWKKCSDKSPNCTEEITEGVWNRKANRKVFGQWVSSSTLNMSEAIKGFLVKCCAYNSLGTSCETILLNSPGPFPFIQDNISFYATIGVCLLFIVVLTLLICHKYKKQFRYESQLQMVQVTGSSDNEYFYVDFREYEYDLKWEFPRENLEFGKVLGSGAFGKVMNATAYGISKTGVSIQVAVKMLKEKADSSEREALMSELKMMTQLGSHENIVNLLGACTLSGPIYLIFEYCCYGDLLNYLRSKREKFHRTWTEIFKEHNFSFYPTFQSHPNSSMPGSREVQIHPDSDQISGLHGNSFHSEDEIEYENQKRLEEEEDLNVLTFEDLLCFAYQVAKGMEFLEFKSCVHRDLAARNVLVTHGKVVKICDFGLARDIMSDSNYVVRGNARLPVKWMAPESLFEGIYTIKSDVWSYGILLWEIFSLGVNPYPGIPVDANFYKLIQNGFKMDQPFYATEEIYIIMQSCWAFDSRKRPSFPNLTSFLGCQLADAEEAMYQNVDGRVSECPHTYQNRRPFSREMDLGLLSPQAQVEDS
In short: (§1)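 Each kinase phosphorylated a fluorescent-labelled tyrosine peptide in 50 mM HEPES pH 7.5, 10 mM MgCl2, 1 mM EGTA, 0.01% Brij 35, 1 mM DTT at RT, with ATP at Km for that enzyme. After 60 min, EDTA quench and Eu-anti-phosphotyrosine antibody (30 min, dark); IC50 from TR-FRET decrease.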

TYRO3 = target: T2, TYRO3 (Homo sapiens, UniProt Q06418); assay: TR-FRET kinase activity assay, TYRO3; assay type: biochemical; details: ATP at Km, 60 minutes
T2 sequence (Q06418 41-890): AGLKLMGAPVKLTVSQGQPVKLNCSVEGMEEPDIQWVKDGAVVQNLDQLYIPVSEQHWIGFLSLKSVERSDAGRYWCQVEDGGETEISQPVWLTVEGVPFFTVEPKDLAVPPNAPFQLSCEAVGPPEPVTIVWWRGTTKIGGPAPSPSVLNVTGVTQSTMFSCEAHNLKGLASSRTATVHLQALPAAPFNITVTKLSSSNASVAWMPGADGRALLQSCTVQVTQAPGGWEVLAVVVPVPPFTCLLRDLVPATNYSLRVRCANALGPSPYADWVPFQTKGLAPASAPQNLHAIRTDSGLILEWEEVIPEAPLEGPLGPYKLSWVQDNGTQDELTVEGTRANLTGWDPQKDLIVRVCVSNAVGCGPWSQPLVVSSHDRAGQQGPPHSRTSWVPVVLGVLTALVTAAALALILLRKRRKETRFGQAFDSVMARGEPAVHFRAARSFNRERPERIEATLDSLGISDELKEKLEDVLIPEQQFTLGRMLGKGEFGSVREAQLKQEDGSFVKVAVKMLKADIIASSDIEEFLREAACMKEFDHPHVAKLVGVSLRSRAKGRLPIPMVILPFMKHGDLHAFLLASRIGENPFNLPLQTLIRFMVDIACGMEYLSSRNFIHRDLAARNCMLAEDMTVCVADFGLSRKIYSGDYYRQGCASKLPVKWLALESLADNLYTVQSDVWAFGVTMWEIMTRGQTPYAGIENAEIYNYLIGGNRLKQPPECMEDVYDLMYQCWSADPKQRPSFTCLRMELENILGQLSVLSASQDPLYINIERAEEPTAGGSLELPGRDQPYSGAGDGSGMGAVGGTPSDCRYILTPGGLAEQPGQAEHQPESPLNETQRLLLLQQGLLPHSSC
In short: as §1

pIC50 (FLT3) | pIC50 (TYRO3) | SMILES
≥ 7.00 | ≥ 7.00 | Cc1cc(-c2cc(C3CCC(O)CC3)n3nc(NC(C)CC4CC4)ncc23)ccn1 (stereo not drawn) [Compound 190]
5.00 to 6.00 | 5.00 to 6.00 | COCC(C)Nc1ncc2c(N3CCOCC3=O)cc(C3CCC(O)CC3)n2n1 (stereo not drawn) [Compound 192]
≥ 7.00 | ≥ 7.00 | CC(CC1CC1)Nc1ncc2c(-c3ccc(CN4CCOCC4)cc3)cc(C3CCC(O)CC3)n2n1 (stereo not drawn) [Compound 189]
6.00 to 7.00 | 6.00 to 7.00 | CCCCC[C@H](C)Nc1ncc2c(-c3ccc(S(=O)(=O)N4CCOCC4)cc3)cc([C@H]3CC[C@@H](O)CC3)n2n1 [Compound 103, (1R,4s)-4-(2-((S)-heptan-2-ylamino)-5-(4-(morpholinosulfonyl)phenyl)pyrrolo[2,1-f][1,2,4]triazin-7-yl)cyclohexanol]
6.00 to 7.00 | ≥ 7.00 | COC[C@H](C)Nc1ncc2c(-c3cn(C)cn3)cc([C@H]3CC[C@H](O)CC3)n2n1 [Compound 186]
≥ 7.00 | ≥ 7.00 | C[C@@H](COC(F)F)Nc1ncc2c(-c3ccc(CN4CCOCC4)cc3)cc([C@H]3CC[C@H](O)CC3)n2n1 [Compound 188]
6.00 to 7.00 | ≥ 7.00 | COC[C@H](C)Nc1ncc2c(-c3ccc(C(=O)N4CCOCC4)cc3)cc([C@H]3CC[C@H](O)CC3)n2n1 [Compound 187, (4-(7-((trans)-4-hydroxycyclohexyl)-2-(((S)-1-methoxypropan-2-yl)amino)pyrrolo[2,1-f][1,2,4]triazin-5-yl)phenyl)(morpholino)methanone]
6.00 to 7.00 | ≥ 7.00 | COCC(C)Nc1ncc2c(-c3ccc(C4(N5CCN(C)CC5)CC4)cc3)cc(C3CCC(O)CC3)n2n1 (stereo not drawn) [Compound 185]

SMILES | pIC50 (FLT3) | pIC50 (TYRO3)
COCC(C)Nc1ncc2c(C3CC4CCC(C3)N4C)cc(C3CCC(O)CC3)n2n1 (stereo not drawn) [Compound 191] | 5.00 to 6.00 | ≥ 7.00
